From patent US11090319B2, “Therapeutic uses of pharmaceutical compositions comprising cyclic boronic acid ester derivatives” (Melinta Subsidiary Corp., priority 2010, dated 2021)

How the values were obtained:
Experiment in all cases: Ceftazidime MIC with fixed concentration of BLI
Format in all cases: cell-based
[1] = system: PAM2035 Pseudomonas aeruginosa ampC mexA:tet
Method: (§1) Next, ceftazidime potentiation activity of several cyclic boronic acid ester derivatives was tested using a larger panel of strains expressing β-lactamase hydrolyzing enzymes. Ceftazidime MICs were determined alone and in the presence of fixed concentrations of various cyclic boronic acid ester derivatives.

[2] = system: ec300 Escherichia coli TEM-3; settings: ec300 TEM-3
Method: as §1

[3] = system: KP1008 Klebsiella pneumoniae KPC-2; settings: KP1008 KPC-2
Method: as §1

[4] = system: ECL1002 Enterobacter cloacae Hyper AmpC expression
Method: as §1

[5] = system: KX1000 Klebsiella oxytoca OXA-2; settings: KX1000 OXA-2
Method: as §1

[6] = system: ec301 Escherichia coli TEM-6; settings: ec301 TEM-6
Method: as §1

[7] = system: AB1054 Acinetobacter baumannii OXA-23; settings: AB1054 OXA-23
Method: as §1

[8] = system: EC1010 Escherichia coli CMY-6; settings: EC1010 CMY-6
Method: as §1

[9] = system: ec303 Escherichia coli TEM-12; settings: ec303 TEM-12
Method: as §1

[10] = system: EC1004 Escherichia coli CMY-2; settings: EC1004 CMY-2
Method: as §1

[11] = system: EC1009 Escherichia coli TEM-10; settings: EC1009 TEM-10
Method: as §1

[12] = system: EC1014 Escherichia coli DHA-1; settings: EC1014 DHA-1
Method: as §1

[13] = system: EC1007 Escherichia coli KPC-3; settings: EC1007 KPC-3
Method: as §1

[14] = system: EC1011 Escherichia coli TEM-26; settings: EC1011 TEM-26
Method: as §1

[15] = system: pa1063 Pseudomonas aeruginosa GES-1; settings: pa1063 GES-1
Method: as §1

[16] = system: ec302 Escherichia coli TEM-10; settings: ec302 TEM-10
Method: as §1

[17] = system: PAM2005 Pseudomonas aeruginosa ampC
Method: as §1

[18] = system: CF1000 Citrobacter freundii Hyper AmpC expression
Method: as §1

[19] = system: ec310 Escherichia coli ACT-1; settings: ec310 ACT-1
Method: as §1

[20] = system: ec306 Escherichia coli SHV-2; settings: ec306 SHV-2
Method: as §1

[21] = system: EC1006 Escherichia coli FOX-5; settings: EC1006 FOX-5
Method: as §1

[22] = system: ec307 Escherichia coli SHV-4; settings: ec307 SHV-4
Method: as §1

[23] = system: KP1010 Klebsiella pneumoniae SHV-12; settings: KP1010 SHV-12
Method: as §1

[24] = system: AB1057 Acinetobacter baumannii OXA-58; settings: AB1057 OXA-58
Method: as §1

[25] = system: KP1009 Klebsiella pneumoniae CTX-M-15; settings: KP1009 CTX-M-15
Method: as §1

[26] = system: KP1005 Klebsiella pneumoniae CTX-M-14; settings: KP1005 CTX-M-14
Method: as §1

[27] = system: ec309 Escherichia coli MIR-1; settings: ec309 MIR-1
Method: as §1

[28] = system: KP1007 Klebsiella pneumoniae OXA-10; settings: KP1007 OXA-10
Method: as §1

[29] = system: EC1012 Escherichia coli TEM-12; settings: EC1012 TEM-12
Method: as §1

[30] = system: KP1004 Klebsiella pneumoniae KPC-2; settings: KP1004 KPC-2
Method: as §1

[31] = system: ec308 Escherichia coli SHV-5; settings: ec308 SHV-5
Method: as §1

[32] = Pseudomonas aeruginosa, read-out: Ceftazidime MIC Alone
[33] = Escherichia coli, read-out: Ceftazidime MIC Alone
[34] = Klebsiella pneumoniae, read-out: Ceftazidime MIC Alone
[35] = Acinetobacter baumannii, read-out: Ceftazidime MIC Alone

SMILES: O=C(O)C[C@@H]1CC[C@H](NC(=O)Cc2ccccc2)B(O)O1 [Compound 6, 2-((3R,6S)-2-hydroxy-3-(2-phenylacetamido)-1,2-oxaborinan-6-yl)acetic acid]
- Ceftazidime MIC with cyclic boronic acid ester derivative ([1]; derivative at 10 μg/mL): Y (MIC of greater than 1 μg/mL to 8 μg/mL)
- Ceftazidime MIC with cyclic boronic acid ester derivative ([2]; derivative at 10 μg/mL): Z (MIC of greater than 8 μg/mL)
- Ceftazidime MIC with cyclic boronic acid ester derivative ([3]; derivative at 10 μg/mL): X (MIC of 1 μg/mL or less)
- Ceftazidime MIC with cyclic boronic acid ester derivative ([4]; derivative at 10 μg/mL): Y (MIC of greater than 1 μg/mL to 8 μg/mL)
- Ceftazidime MIC with cyclic boronic acid ester derivative ([5]; derivative at 10 μg/mL): Y (MIC of greater than 1 μg/mL to 8 μg/mL)
- Ceftazidime MIC with cyclic boronic acid ester derivative ([6]; derivative at 10 μg/mL): Z (MIC of greater than 8 μg/mL)
- Ceftazidime MIC with cyclic boronic acid ester derivative ([7]; derivative at 10 μg/mL): Z (MIC of greater than 8 μg/mL)
- Ceftazidime MIC with cyclic boronic acid ester derivative ([8]; derivative at 10 μg/mL): Y (MIC of greater than 1 μg/mL to 8 μg/mL)
- Ceftazidime MIC with cyclic boronic acid ester derivative ([9]; derivative at 10 μg/mL): Y (MIC of greater than 1 μg/mL to 8 μg/mL)
- Ceftazidime MIC with cyclic boronic acid ester derivative ([10]; derivative at 10 μg/mL): Y (MIC of greater than 1 μg/mL to 8 μg/mL)
- Ceftazidime MIC with cyclic boronic acid ester derivative ([11]; derivative at 10 μg/mL): Z (MIC of greater than 8 μg/mL)
- Ceftazidime MIC with cyclic boronic acid ester derivative ([12]; derivative at 10 μg/mL): X (MIC of 1 μg/mL or less)
- Ceftazidime MIC with cyclic boronic acid ester derivative ([13]; derivative at 10 μg/mL): X (MIC of 1 μg/mL or less)
- Ceftazidime MIC with cyclic boronic acid ester derivative ([14]; derivative at 10 μg/mL): Z (MIC of greater than 8 μg/mL)
- Ceftazidime MIC with cyclic boronic acid ester derivative ([15]; derivative at 10 μg/mL): Z (MIC of greater than 8 μg/mL)
- Ceftazidime MIC with cyclic boronic acid ester derivative ([16]; derivative at 10 μg/mL): Z (MIC of greater than 8 μg/mL)
- Ceftazidime MIC with cyclic boronic acid ester derivative ([17]; derivative at 10 μg/mL): Z (MIC of greater than 8 μg/mL)
- Ceftazidime MIC with cyclic boronic acid ester derivative ([18]; derivative at 10 μg/mL): Y (MIC of greater than 1 μg/mL to 8 μg/mL)
- Ceftazidime MIC with cyclic boronic acid ester derivative ([19]; derivative at 10 μg/mL): X (MIC of 1 μg/mL or less)
- Ceftazidime MIC with cyclic boronic acid ester derivative ([20]; derivative at 10 μg/mL): Z (MIC of greater than 8 μg/mL)
- Ceftazidime MIC with cyclic boronic acid ester derivative ([21]; derivative at 10 μg/mL): Y (MIC of greater than 1 μg/mL to 8 μg/mL)
- Ceftazidime MIC with cyclic boronic acid ester derivative ([22]; derivative at 10 μg/mL): Z (MIC of greater than 8 μg/mL)
- Ceftazidime MIC with cyclic boronic acid ester derivative ([23]; derivative at 10 μg/mL): Y (MIC of greater than 1 μg/mL to 8 μg/mL)
- Ceftazidime MIC with cyclic boronic acid ester derivative ([24]; derivative at 10 μg/mL): Z (MIC of greater than 8 μg/mL)
- Ceftazidime MIC with cyclic boronic acid ester derivative ([25]; derivative at 10 μg/mL): Z (MIC of greater than 8 μg/mL)
- Ceftazidime MIC with cyclic boronic acid ester derivative ([26]; derivative at 10 μg/mL): Z (MIC of greater than 8 μg/mL)
- Ceftazidime MIC with cyclic boronic acid ester derivative ([27]; derivative at 10 μg/mL): X (MIC of 1 μg/mL or less)
- Ceftazidime MIC with cyclic boronic acid ester derivative ([28]; derivative at 10 μg/mL): Y (MIC of greater than 1 μg/mL to 8 μg/mL)
- Ceftazidime MIC with cyclic boronic acid ester derivative ([29]; derivative at 10 μg/mL): Y (MIC of greater than 1 μg/mL to 8 μg/mL)
- Ceftazidime MIC with cyclic boronic acid ester derivative ([30]; derivative at 10 μg/mL): Y (MIC of greater than 1 μg/mL to 8 μg/mL)
- Ceftazidime MIC with cyclic boronic acid ester derivative ([31]; derivative at 10 μg/mL): Z (MIC of greater than 8 μg/mL)

SMILES: CC(C)(O/N=C(\C(=O)N[C@@H]1C(=O)N2C(C(=O)[O-])=C(C[n+]3ccccc3)CS[C@H]12)c1csc(N)n1)C(=O)O [Ceftazidime, reference compound]
- MIC [1, 32]: > 8 µg/mL
- MIC [2, 33]: > 8 µg/mL
- MIC [3, 34]: 1 to 8 µg/mL
- MIC ([4]; Enterobacter cloacae, read-out: Ceftazidime MIC Alone): > 8 µg/mL
- MIC ([5]; Klebsiella oxytoca, read-out: Ceftazidime MIC Alone): > 8 µg/mL
- MIC [6, 33]: > 8 µg/mL
- MIC [7, 35]: > 8 µg/mL
- MIC [8, 33]: > 8 µg/mL
- MIC [9, 33]: > 8 µg/mL
- MIC [10, 33]: > 8 µg/mL
- MIC [11, 33]: > 8 µg/mL
- MIC [12, 33]: > 8 µg/mL
- MIC [13, 33]: > 8 µg/mL
- MIC [14, 33]: > 8 µg/mL
- MIC [15, 32]: > 8 µg/mL
- MIC [16, 33]: > 8 µg/mL
- MIC [17, 32]: > 8 µg/mL
- MIC ([18]; Citrobacter freundii, read-out: Ceftazidime MIC Alone): > 8 µg/mL
- MIC [19, 33]: > 8 µg/mL
- MIC [20, 33]: > 8 µg/mL
- MIC [21, 33]: > 8 µg/mL
- MIC [22, 33]: > 8 µg/mL
- MIC [23, 34]: > 8 µg/mL
- MIC [24, 35]: > 8 µg/mL
- MIC [25, 34]: > 8 µg/mL
- MIC [26, 34]: > 8 µg/mL
- MIC [27, 33]: > 8 µg/mL
- MIC [28, 34]: > 8 µg/mL
- MIC [29, 33]: > 8 µg/mL
- MIC [30, 34]: > 8 µg/mL
- MIC [31, 33]: > 8 µg/mL
